Measured values: patent US20120269739A1, “COMPOSITION, USE, AND PRESERVATION METHOD” (L'OREAL, priority 2009, published 2012)
Read-outs that look alike come from different tables or passages of the source.

What was measured:
[1] = test system: Pseudomonas aeruginosa (Pa) ATCC 19429; experiment: Challenge Test (artificial contamination) of cosmetic formula; settings: 22° C., chlorhexidine digluconate 0.3%, gingerone 2%
[2] = test system: Aspergillus niger (An) ATCC 6275; experiment: as above; format: cell-based; settings: 22° C., chlorhexidine digluconate 0.3%, gingerone 2%
Text: (§1) 5 pure microorganism cultures are used.

[3] = test system: Candida albicans (Ca) ATCC 10231; experiment: as above; format: cell-based; settings: 22° C., chlorhexidine digluconate 0.3%, gingerone 2%; for Log reduction number after 7 days of contact, relative to the control, C. albicans: 1st formula O/W emulsion, Amt weight %: phenoxyethanol 1%, sodium benzoate 0.6%; for Log reduction number after 7 days of contact, relative to the control, Candida albicans: Amt weight %: sodium benzoate 0.6%
Text: as §1

[4] = test system: Enterococcus faecalis (Ef) ATCC 33186; experiment: as above; format: cell-based; settings: 22° C., chlorhexidine digluconate 0.3%, gingerone 2%
Text: as §1

[5] = test system: Escherichia coli (Ec) ATCC 8739; experiment: as above; format: cell-based; settings: 22° C., chlorhexidine digluconate 0.3%, gingerone 2%
Text: as §1

[6] = test system: Candida albicans (ATCC 10231); experiment: Action kinetics in broth; format: cell-based; settings: Sabouraud broth pH 5.2±0.3, 35° C., gingerone 2%, sodium benzoate 3.3%, chlorhexidine digluconate 2.2%
Procedure: (§2) The object of this example is to distinguish a compound according to the invention (gingerone) from the preserving agents conventionally used for protecting cosmetic formulations against microbial contamination, as regards the action kinetics.
(§3) The solutions are prepared in Trypto-casein-soya (TS) broth for the bacteria and in Sabouraud broth for the yeast. These solutions are adjusted to pH 5.2±0.3.
(§4) For each microbial solution, a growth control consisting of the appropriate culture medium alone is prepared.
The solutions in Sabouraud broth (36 ml) are inoculated with the yeast (4 ml of suspension) to a final content of 10^6 cfu/ml.
(§5) The inoculated samples are then placed in an incubator-agitator at 35° C.±2° C. Samples are taken after 6 hours, 24 hours, 48 hours, 72 hours and 7 days. Decimal dilutions are then prepared in Eugon LT100 broth. These dilutions are left for 30 minutes±15 minutes at 25° C. in order to neutralize the preserving agents, and are then double-seeded on the surface of Petri dishes containing Eugon LT100 agar.
(§6) The Petri dishes are then incubated in an oven at 35° C.±2° C. for a variable time depending on the strain concerned: • 48 hours; S. aureus; • 5 days: E. faecalis and C. albicans.
(§7) The results are expressed for each solution, each strain and each contact time as the number of cfu/ml of stock solution.

[7] = test system: Staphylococcus aureus (ATCC 6538); experiment: Action kinetics in broth; format: cell-based; settings: TS broth pH 5.2±0.3, 35° C., gingerone 2%, sodium benzoate 3.3%, chlorhexidine digluconate 2.2%
Procedure: as §2, §3, §4
(§8) The solutions in TS broth (36 ml) are inoculated separately with each of the bacteria (4 ml of microbial suspension) to a final content of 10^6 cfu/ml of mixture.
as §5, §6, §7

[8] = test system: Enterococcus faecalis (ATCC 33186); experiment: Action kinetics in broth; format: cell-based; settings: TS broth pH 5.2±0.3, 35° C., gingerone 2%, sodium benzoate 3.3%, chlorhexidine digluconate 2.2%
Procedure: as §2, §3, §4, §8, §5, §6, §7

[9] = cited from earlier work
[10] = 1st formula O/W emulsion, Amt weight %: phenoxyethanol 1%, sodium benzoate 0.6%
[11] = 2nd formula lotion (pH 7 ± 0.2), Amt weight %: sodium benzoate 0.6%, phenoxyethanol 1%
[12] = 3rd formula O/W emulsion, Amt weight %: sodium benzoate 0.6%
[13] = 2nd formula lotion (pH 7 ± 0.2), phenoxyethanol 1%
[14] = contact time 0 hours, first series
[15] = contact time 0 hours, second series of Table 1
[16] = contact time 6 hours, first series
[17] = contact time 6 hours, second series of Table 1
[18] = contact time 24 hours, first series
[19] = contact time 24 hours, second series of Table 1
[20] = contact time 48 hours, first series
[21] = contact time 48 hours, second series of Table 1
[22] = contact time 72 hours, first series
[23] = contact time 72 hours, second series of Table 1
[24] = contact time 168 hours, first series
[25] = contact time 168 hours, second series of Table 1

Structure (SMILES)	Log reduction number after 7 days of contact, relative to the control, A. niger [2, 10] [Log]	Log reduction number after 7 days of contact, relative to the control, A. niger [2, 11] [Log]	Log reduction number after 7 days of contact, relative to the control, A. niger [2, 12] [Log]	Log reduction number after 7 days of contact, relative to the control, C. albicans [3] [Log]	Log reduction number after 7 days of contact, relative to the control, Candida albicans [3, 13] [Log]	Log reduction number after 7 days of contact, relative to the control, Candida albicans ([3]; 3rd formula O/W emulsion) [Log]	Log reduction number after 7 days of contact, relative to the control, E. faecalis [4, 10] [Log]	Log reduction number after 7 days of contact, relative to the control, E. faecalis [4, 11] [Log]	Log reduction number after 7 days of contact, relative to the control, E. faecalis [4, 12] [Log]	Log reduction number after 7 days of contact, relative to the control, E. coli [5, 10] [Log]	Log reduction number after 7 days of contact, relative to the control, E. coli [5, 11] [Log]	Log reduction number after 7 days of contact, relative to the control, E. coli [5, 12] [Log]	Number of cfu counted after strain/solution contact time, Candida albicans ([6]; contact time 0 hours)	Number of cfu counted after strain/solution contact time, Candida albicans ([6]; contact time 6 hours) [cfu/ml]	Number of cfu counted after strain/solution contact time, Candida albicans ([6]; contact time 24 hours) [cfu/ml]	Number of cfu counted after strain/solution contact time, Candida albicans ([6]; contact time 48 hours) [cfu/ml]	Number of cfu counted after strain/solution contact time, Candida albicans ([6]; contact time 72 hours) [cfu/ml]	Number of cfu counted after strain/solution contact time, Candida albicans ([6]; contact time 168 hours) [cfu/ml]	Number of cfu counted after strain/solution contact time, Staphylococcus aureus [7, 14]	Number of cfu counted after strain/solution contact time, Staphylococcus aureus [7, 15]	other results
N=C(NCCCCCCNC(=N)NC(=N)Nc1ccc(Cl)cc1)NC(=N)Nc1ccc(Cl)cc1.O=C(O)[C@H](O)[C@@H](O)[C@H](O)[C@H](O)CO.O=C(O)[C@H](O)[C@@H](O)[C@H](O)[C@H](O)CO [Chlorhexidine digluconate]	0.4	0.4	2.3	0.3	3	>4	0.9	1.3	1.8	>4	0.8	>4	2.9 × 10^6 cfu/ml	<10	<10	<10	<10	<10	1.7 × 10^6 cfu/ml	2.5 × 10^6 cfu/ml	Log reduction number after 7 days of contact, relative to the control, P. aeruginosa [1, 10]: 0.3 Log; Log reduction number after 7 days of contact, relative to the control, P. aeruginosa [1, 11]: 0.5 Log; Log reduction number after 7 days of contact, relative to the control, P. aeruginosa [1, 12]: 0 Log; Number of cfu counted after strain/solution contact time, Staphylococcus aureus [7, 16]: <10 cfu/ml; Number of cfu counted after strain/solution contact time, Staphylococcus aureus [7, 17]: <10 cfu/ml; Number of cfu counted after strain/solution contact time, Staphylococcus aureus [7, 18]: <10 cfu/ml; Number of cfu counted after strain/solution contact time, Staphylococcus aureus [7, 19]: <10 cfu/ml; Number of cfu counted after strain/solution contact time, Staphylococcus aureus [7, 20]: <10 cfu/ml; Number of cfu counted after strain/solution contact time, Staphylococcus aureus [7, 21]: <10 cfu/ml; Number of cfu counted after strain/solution contact time, Staphylococcus aureus [7, 22]: <10 cfu/ml; Number of cfu counted after strain/solution contact time, Staphylococcus aureus [7, 23]: <10 cfu/ml; Number of cfu counted after strain/solution contact time, Staphylococcus aureus [7, 24]: <10 cfu/ml; Number of cfu counted after strain/solution contact time, Staphylococcus aureus [7, 25]: <10 cfu/ml; Number of cfu counted after strain/solution contact time, Enterococcus faecalis ([8]; contact time 0 hours): 2.5 × 10^6 cfu/ml; Number of cfu counted after strain/solution contact time, Enterococcus faecalis ([8]; contact time 6 hours): <10 cfu/ml; Number of cfu counted after strain/solution contact time, Enterococcus faecalis ([8]; contact time 24 hours): <10 cfu/ml; Number of cfu counted after strain/solution contact time, Enterococcus faecalis ([8]; contact time 48 hours): <10 cfu/ml; Number of cfu counted after strain/solution contact time, Enterococcus faecalis ([8]; contact time 72 hours): <10 cfu/ml; Number of cfu counted after strain/solution contact time, Enterococcus faecalis ([8]; contact time 168 hours): <10 cfu/ml
COc1cc(C)ccc1O [2-methoxy-4-methylphenol]	–	–	–	–	–	–	–	–	–	–	–	–	–	–	–	–	–	–	–	–	pKa ([9]; value given in the literature): 10.27
[H]/N=C(\N/C(=N/[H])NCCCCCCNC(=N)NC(=N)Nc1ccc(Cl)cc1)Nc1ccc(Cl)cc1 [chlorhexidine]	–	–	–	–	–	–	–	–	–	–	–	–	–	–	–	–	–	–	–	–	pKa ([9]; stated in the conclusion of Example 2, no source): 10.3
O=C([O-])c1ccccc1.[Na+] [Sodium benzoate]	0.5	<0.5	3	0	<0.5	>4	0.6	1.4	>4	0.3	0.7	>4	2.9 × 10^6 cfu/ml	<10	<10	<10	<10	<10	1.7 × 10^6 cfu/ml	2.5 × 10^6 cfu/ml	Number of cfu counted after strain/solution contact time, Staphylococcus aureus [7, 16]: <10 cfu/ml; Number of cfu counted after strain/solution contact time, Staphylococcus aureus [7, 17]: <10 cfu/ml; Number of cfu counted after strain/solution contact time, Staphylococcus aureus [7, 18]: <10 cfu/ml; Number of cfu counted after strain/solution contact time, Staphylococcus aureus [7, 19]: <10 cfu/ml; Number of cfu counted after strain/solution contact time, Staphylococcus aureus [7, 20]: <10 cfu/ml; Number of cfu counted after strain/solution contact time, Staphylococcus aureus [7, 21]: <10 cfu/ml; Number of cfu counted after strain/solution contact time, Staphylococcus aureus [7, 22]: <10 cfu/ml; Number of cfu counted after strain/solution contact time, Staphylococcus aureus [7, 23]: <10 cfu/ml; Number of cfu counted after strain/solution contact time, Staphylococcus aureus [7, 24]: <10 cfu/ml; Number of cfu counted after strain/solution contact time, Staphylococcus aureus [7, 25]: <10 cfu/ml; Number of cfu counted after strain/solution contact time, Enterococcus faecalis ([8]; contact time 0 hours): 2.5 × 10^6 cfu/ml; Number of cfu counted after strain/solution contact time, Enterococcus faecalis ([8]; contact time 6 hours): 4.4 × 10^5 cfu/ml; Number of cfu counted after strain/solution contact time, Enterococcus faecalis ([8]; contact time 24 hours): 7.0 × 10^2 cfu/ml; Number of cfu counted after strain/solution contact time, Enterococcus faecalis ([8]; contact time 48 hours): <10 cfu/ml; Number of cfu counted after strain/solution contact time, Enterococcus faecalis ([8]; contact time 72 hours): <10 cfu/ml; Number of cfu counted after strain/solution contact time, Enterococcus faecalis ([8]; contact time 168 hours): <10 cfu/ml
